Consider one compound from article PMC7316778 (Nature Communications, 2020).

Assay [1] has as its system FES^S700C HL-60 neutrophils. Briefly: Neutrophil oxidative burst assay (NBT). It is filed as cell-based, human.
Assay [2] deals with T1, BMPR2 (Homo sapiens, UniProt Q13873).
T1 sequence (Q13873 27-1038): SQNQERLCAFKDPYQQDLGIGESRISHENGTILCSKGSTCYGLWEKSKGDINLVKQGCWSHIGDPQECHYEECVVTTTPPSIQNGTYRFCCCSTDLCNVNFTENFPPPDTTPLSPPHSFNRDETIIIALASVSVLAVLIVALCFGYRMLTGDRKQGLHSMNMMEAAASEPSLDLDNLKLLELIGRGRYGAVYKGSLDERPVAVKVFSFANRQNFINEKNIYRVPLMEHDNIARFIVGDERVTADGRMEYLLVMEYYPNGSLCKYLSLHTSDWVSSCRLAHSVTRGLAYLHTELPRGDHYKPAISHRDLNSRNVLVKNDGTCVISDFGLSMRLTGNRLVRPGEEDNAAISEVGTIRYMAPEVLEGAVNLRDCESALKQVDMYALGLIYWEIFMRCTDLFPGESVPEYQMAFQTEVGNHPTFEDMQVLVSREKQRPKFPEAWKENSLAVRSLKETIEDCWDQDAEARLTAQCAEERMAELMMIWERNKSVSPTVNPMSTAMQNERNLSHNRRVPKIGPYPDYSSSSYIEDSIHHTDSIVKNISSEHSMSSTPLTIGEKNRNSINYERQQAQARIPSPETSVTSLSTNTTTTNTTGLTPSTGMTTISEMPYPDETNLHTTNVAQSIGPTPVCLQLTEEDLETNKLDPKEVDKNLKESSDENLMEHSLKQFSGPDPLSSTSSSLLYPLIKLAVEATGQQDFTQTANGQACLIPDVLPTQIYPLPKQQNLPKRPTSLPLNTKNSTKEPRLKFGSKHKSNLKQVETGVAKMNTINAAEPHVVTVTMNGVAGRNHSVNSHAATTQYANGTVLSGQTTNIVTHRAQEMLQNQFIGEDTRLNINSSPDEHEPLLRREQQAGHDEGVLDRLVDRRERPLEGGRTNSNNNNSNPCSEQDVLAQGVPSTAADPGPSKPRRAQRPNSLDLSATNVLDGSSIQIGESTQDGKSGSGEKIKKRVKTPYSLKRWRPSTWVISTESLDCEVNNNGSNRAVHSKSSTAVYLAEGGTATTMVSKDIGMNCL
Briefly: SelectScreen kinase assay.
Procedure: (§1) Selectivity profiling assays were performed by the Invitrogen SelectScreen™ Services. […] The concentration of ATP was selected to be equal to the KM, unless indicated otherwise.

Assay [3] addresses CDK9/cyclin K (Homo sapiens, UniProt P50750). Nature of the assay: SelectScreen kinase assay. The conditions noted are these: for Inhibition at 1 µM (%): CDK9/cyclin K, LanthaScreen Binding. In general terms: In TR-FRET formats the signal depends on donor and acceptor labels being close together.
Procedure: as §1
The target of assay [4] is T2, GRK1 (Homo sapiens, UniProt Q15835).
T2 sequence (Q15835 1-563): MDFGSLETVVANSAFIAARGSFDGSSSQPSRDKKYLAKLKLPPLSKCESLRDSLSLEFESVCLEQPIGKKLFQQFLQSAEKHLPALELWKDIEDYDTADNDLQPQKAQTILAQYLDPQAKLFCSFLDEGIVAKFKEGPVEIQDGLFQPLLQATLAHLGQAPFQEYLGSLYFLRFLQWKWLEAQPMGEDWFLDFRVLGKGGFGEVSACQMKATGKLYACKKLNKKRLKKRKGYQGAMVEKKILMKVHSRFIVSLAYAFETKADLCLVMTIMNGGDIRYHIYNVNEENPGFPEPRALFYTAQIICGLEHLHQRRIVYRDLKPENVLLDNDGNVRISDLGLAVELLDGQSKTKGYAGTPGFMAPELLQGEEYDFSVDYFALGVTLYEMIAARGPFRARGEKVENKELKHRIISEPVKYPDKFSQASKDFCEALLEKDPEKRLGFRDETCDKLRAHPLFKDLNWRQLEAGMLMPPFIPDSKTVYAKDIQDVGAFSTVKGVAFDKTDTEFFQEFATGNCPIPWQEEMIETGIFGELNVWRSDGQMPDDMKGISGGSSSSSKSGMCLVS
Nature of the assay: SelectScreen kinase assay.
Procedure: as §1

Assay [5] has as its target LIMK2 (Homo sapiens, UniProt P53671). Briefly: SelectScreen kinase assay.
Procedure: as §1
Assay [6] deals with T3, MAP4K3 (GLK) (Homo sapiens, UniProt Q8IVH8).
T3 sequence (Q8IVH8 1-894): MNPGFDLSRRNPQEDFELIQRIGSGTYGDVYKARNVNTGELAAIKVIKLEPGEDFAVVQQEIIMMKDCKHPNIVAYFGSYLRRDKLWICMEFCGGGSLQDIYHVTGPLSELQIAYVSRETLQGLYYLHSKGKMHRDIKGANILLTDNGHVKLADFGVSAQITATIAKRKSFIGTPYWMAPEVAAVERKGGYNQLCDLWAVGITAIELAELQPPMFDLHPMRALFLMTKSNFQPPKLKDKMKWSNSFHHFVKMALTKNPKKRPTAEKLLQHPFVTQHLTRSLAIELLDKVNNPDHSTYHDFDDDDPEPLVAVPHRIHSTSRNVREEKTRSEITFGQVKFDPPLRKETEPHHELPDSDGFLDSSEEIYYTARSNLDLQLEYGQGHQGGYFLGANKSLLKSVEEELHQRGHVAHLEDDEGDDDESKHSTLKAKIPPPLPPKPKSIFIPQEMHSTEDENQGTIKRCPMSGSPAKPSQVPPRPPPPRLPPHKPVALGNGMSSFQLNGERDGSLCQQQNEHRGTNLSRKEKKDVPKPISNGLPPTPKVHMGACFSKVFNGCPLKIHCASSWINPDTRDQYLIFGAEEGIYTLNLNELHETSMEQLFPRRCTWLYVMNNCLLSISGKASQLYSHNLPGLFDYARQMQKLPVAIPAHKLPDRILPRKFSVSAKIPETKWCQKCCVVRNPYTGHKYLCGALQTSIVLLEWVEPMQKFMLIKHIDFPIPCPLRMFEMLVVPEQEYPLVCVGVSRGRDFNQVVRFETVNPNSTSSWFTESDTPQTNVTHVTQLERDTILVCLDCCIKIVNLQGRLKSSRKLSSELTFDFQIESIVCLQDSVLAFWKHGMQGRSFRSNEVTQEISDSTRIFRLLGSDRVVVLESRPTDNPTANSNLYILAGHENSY
Briefly: SelectScreen kinase assay.
Procedure: as §1

In assay [7] the target is RIPK3 (Homo sapiens, UniProt Q9Y572). Nature of the assay: SelectScreen kinase assay.
RIPK3, sequence (Q9Y572 whole entry): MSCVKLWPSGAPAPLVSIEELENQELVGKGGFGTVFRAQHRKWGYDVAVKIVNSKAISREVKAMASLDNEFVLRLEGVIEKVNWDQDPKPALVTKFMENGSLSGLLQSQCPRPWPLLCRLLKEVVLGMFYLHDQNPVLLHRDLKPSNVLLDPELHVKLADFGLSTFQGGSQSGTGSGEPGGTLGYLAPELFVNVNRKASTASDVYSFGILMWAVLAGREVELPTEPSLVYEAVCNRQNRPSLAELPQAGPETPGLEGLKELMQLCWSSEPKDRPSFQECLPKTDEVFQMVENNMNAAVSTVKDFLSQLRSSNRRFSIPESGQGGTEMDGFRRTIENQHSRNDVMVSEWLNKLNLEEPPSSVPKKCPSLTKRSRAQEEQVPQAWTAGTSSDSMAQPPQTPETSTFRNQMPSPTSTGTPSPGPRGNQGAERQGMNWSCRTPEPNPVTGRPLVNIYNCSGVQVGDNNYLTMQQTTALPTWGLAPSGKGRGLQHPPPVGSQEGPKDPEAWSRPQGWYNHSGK
Procedure: as §1
Where [8] appears, read: 1 h, 1 μM WEL028, 1 h preincubation.

As a reminder, the Inhibition is the change of the read-out against control, counted positive when it falls. The inhibition is the drop in the measured response relative to a control, in per cent.

Values joined by “and” are separate entries in the source; they are usually repeats but may differ in a detail not shown here. Identical values can stand only once. Like-named read-outs stand apart in the source and are kept apart here.

LIMK2, sequence (P53671 whole entry): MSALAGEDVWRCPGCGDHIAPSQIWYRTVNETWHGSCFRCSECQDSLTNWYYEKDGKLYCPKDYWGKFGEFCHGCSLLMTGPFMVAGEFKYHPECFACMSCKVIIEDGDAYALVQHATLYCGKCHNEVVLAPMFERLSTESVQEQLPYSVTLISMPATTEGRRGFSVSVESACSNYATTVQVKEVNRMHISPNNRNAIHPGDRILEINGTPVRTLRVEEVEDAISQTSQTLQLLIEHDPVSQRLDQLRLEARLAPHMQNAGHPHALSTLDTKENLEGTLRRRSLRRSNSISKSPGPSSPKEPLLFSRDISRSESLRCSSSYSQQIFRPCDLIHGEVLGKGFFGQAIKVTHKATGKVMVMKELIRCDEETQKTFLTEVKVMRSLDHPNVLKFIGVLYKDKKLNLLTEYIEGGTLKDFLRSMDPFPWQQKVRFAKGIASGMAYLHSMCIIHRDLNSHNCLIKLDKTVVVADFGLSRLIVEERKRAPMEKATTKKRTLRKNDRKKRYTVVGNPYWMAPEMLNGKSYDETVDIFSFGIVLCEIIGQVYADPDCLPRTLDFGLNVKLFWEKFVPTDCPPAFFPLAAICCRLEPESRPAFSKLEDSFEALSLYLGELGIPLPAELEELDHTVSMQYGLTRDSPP
CDK9/cyclin K, sequence (P50750 whole entry): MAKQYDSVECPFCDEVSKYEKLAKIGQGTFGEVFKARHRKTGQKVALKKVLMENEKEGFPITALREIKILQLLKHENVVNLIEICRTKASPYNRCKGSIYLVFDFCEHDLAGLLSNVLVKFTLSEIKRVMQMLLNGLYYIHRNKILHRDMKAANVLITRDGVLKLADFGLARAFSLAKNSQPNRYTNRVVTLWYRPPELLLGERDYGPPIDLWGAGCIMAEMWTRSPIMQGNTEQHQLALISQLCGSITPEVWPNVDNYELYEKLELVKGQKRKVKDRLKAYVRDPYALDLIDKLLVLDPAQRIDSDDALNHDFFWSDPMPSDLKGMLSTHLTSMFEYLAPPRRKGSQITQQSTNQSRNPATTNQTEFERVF
CDK9/cyclin K, sequence (O75909 whole entry partner): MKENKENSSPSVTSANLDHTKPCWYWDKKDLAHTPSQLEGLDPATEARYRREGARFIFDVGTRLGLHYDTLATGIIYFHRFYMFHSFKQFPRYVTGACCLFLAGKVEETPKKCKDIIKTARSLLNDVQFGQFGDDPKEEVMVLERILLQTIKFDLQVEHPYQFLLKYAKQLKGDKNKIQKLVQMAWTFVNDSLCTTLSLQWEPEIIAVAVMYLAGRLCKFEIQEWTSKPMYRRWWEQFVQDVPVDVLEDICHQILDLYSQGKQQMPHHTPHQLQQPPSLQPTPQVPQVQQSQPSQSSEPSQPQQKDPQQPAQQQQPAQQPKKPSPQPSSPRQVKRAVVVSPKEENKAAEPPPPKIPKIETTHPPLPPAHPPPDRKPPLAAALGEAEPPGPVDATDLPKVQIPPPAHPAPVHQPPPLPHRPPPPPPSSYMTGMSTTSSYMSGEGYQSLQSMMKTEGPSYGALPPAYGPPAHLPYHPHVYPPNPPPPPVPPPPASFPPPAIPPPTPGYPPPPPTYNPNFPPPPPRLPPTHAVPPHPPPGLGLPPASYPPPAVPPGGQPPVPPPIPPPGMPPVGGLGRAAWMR

`C#CCOc1ccc(Nc2ncc(Cl)c(Nc3ccccc3NC(=O)C=C)n2)c(OC)c1` [Compound 6]: the “Formazan-positive cells (%)” value in assay [1] (100 nM, Supplementary Figure 12f, individual replicates, listed as WEL028) is 79.976% and 78.7671% and 73.0614%. Moreover, the “Percentage of formazan-positive cells” value in assay [1] (WEL028 prior to PMA stimulation) is given as “did not affect”. The “Inhibition (%)” value is recorded as 3% in assay [2] (1 μM WEL028, 1 h preincubation) and 3% in assay [6] (1 μM WEL028, 1 h preincubation). In addition, the “Inhibition at 1 µM (%)” value in assay [2] (BMPR2, 1 µM, LanthaScreen Binding, listed as WEL028, 1 µM) is 2%; in assay [3], 2%; in assay [3] (listed as WEL028, 1 µM) it was 7%; in assay [4] (GRK1, 1 µM, LanthaScreen Binding, listed as WEL028, 1 µM), 7%; in assay [5] (LIMK2, 1 µM, LanthaScreen Binding, listed as WEL028, 1 µM), -5% and 1%; in assay [6] (MAP4K3 (GLK), 1 µM, LanthaScreen Binding, listed as WEL028, 1 µM), 2%. Also, the inhibition at 1 µM in assay [2] (read-out: Inhibition at 1 µM (%), BMPR2, 1 µM, LanthaScreen Binding) is 4%; in assay [3] (setting [8]) it was 5%; in assay [4] (setting [8]) it was 8%; in assay [4] (read-out: Inhibition at 1 µM (%), GRK1, 1 µM, LanthaScreen Binding) it was 9%; in assay [5] (setting [8]), -2%; in assay [6] (read-out: Inhibition at 1 µM (%), MAP4K3 (GLK), 1 µM, LanthaScreen Binding), 4%. The inhibition at 1 µM in assay [7] (setting [8]) was 1%; in assay [7] (read-out: Inhibition at 1 µM (%), 1 µM, LanthaScreen Binding) it was 2%.
